Data set [1] is described as follows: Two-week stability (HPLC purity). Type of data set: physicochemical. Here is the method: HPLC analysis was carried out on an Agilent 1110/1200 series HPLC system. The column used was an Triart C18; 150×4.6 mm, 3.0 μm particle size (Ex Waters, PN: 186004644). The flow rate was 1.0 mL/min. Mobile phase A was Water:Trifluoroacetic acid (100:0.1%) and mobile phase B was Acetonitrile:Trifluoroacetic acid (100:0.1%). Detection was by UV at 302 nm. The injection volume was 5 μL, column temperature 40° C. and the following gradient was used: […]
Experimental: Maleate salt pattern B (30 mg) was placed into separate 15 mL type I glass vials. To these vials, a HDPE plastic cap was loosely attached to allow the ingress of moisture. The vials were then placed into ICH rated stability cabinets at 25° C./60% RH and 40° C./75% RH and in cold storage at 2-8° C. Following 2 weeks of storage these samples were removed from the stability cabinets and cold storage and the chemical purity assessed by HPLC (method 2). The relevant data was collected using a wavelength of 302 nm. The samples were prepared in MeCN:water (1:1).

A short description of data set [2]: Solubility of the salts in biorelevant media. Type of data set: physicochemical. The note with it: for solubility in FaSSGF (gastric fluid) compared with the free base: result in words, maleate; for solubility FaSSGF (pH 1.37): Fasted State Simulated Gastric Fluid; for solubility FaSSGF (pH 1.37) / solubility FaSSIF (pH 6.71) / solubility FeSSIF (pH 5.14): 25° C., 24 h, HPLC; for solubility FaSSIF (pH 6.71): Fasted State Simulated Intestinal Fluid; for solubility FeSSIF (pH 5.14): Fed State Simulated Intestinal Fluid. Here is the method: Biorelevant media (DI H2O, FeSSIF, FaSSIF and FaSSGF) (2 mL) was charged. Samples were left to equilibrate (25° C.) over 24 h. Solubility measurements were taken using HPLC (see Method 1 above).

For data set [3], the system named is MIA PaCa-2 cells. Nature of the data set: Gemcitabine combination cell assay. Type of data set: cell-based. Here is the method:
Exponentially growing MIA PaCa-2 (ATCC CRL-1420) cells are treated with trypsin to remove cells from the plate surface. Approximately 10,000 cells/well are plated in 96 well plates in RPMI containing 10% fetal bovine serum, 1% sodium pyruvate and 1% L-GlutaMax. Cells are allowed to adhere to the plate surface overnight. Serial half-log dilutions of Chk1 inhibitor test compounds and gemcitabine are made with a final highest concentration of 3000 nM and 100 nM, respectively. Chk1 inhibitors and gemcitabine are combined so that each concentration of Chk1 inhibitor is added to each concentration of gemcitabine. Each drug is also tested as a single agent. Drugs are added to adherent cells (in duplicate) and incubated for 72h. At 72h the cells are treated with Promega Cell Titer Glo reagent for approximately 15 minutes. Luminescence (relative light units, RLU) is recorded using a BMG Polarstar Omega plate reader. The single agent concentration that results in a 50% reduction in total signal (IC50) is calculated using PRISM software and a four-parameter non-linear regression curve fit. For combination studies the RLUs are plotted using PRISM on an XY plot with the gemcitabine concentration on the X axis and RLU on the Y axis. The RLU for each concentration of Chk1 inhibitor is plotted as a function of gemcitabine concentration. The IC50 for gemcitabine alone and at each concentration of Chk1 is determined using a four-parameter non-linear regression curve fit. The approximate concentration of Chk1 inhibitor that results in a two and ten-fold reduction in the IC50 of gemcitabine alone is calculated as an indication of synergistic potency.

The nature of data set [4]: Gravimetric vapour sorption (GVS). Format: physicochemical. The note with it: for GVS weight loss, initial desorption cycle: from 50% RH to 0% RH; for GVS weight loss, initial desorption cycle / GVS water gain, subsequent sorption cycle: 25° C.; for GVS water gain, subsequent sorption cycle: up to 90% RH. Here is the method:
Sorption isotherms were obtained using a Hiden Isochema moisture sorption analyser (model IGAsorp), controlled by IGAsorp Systems Software V6.50.48. The sample was maintained at a constant temperature (25° C.) by the instrument controls. The humidity was controlled by mixing streams of dry and wet nitrogen, with a total flow of 250 ml·min−. The instrument was verified for relative humidity (RH) content by measuring three calibrated Rotronic salt solutions (10-50-88%). The weight change of the sample was monitored as a function of humidity by a microbalance (accuracy+/−0.005 mg). A defined amount of sample was placed in a tared mesh stainless steel basket under ambient conditions. A full experimental cycle typically consisted of three scans (sorption, desorption and sorption) at a constant temperature (25° C.) and 10% RH intervals over a 0-90% range (60 minutes for each humidity level).

Data set [5] can be described thus: Dynamic vapour sorption (DVS) analysis of maleate salt Pattern B. Type of data set: physicochemical. On the procedure: A defined amount of the maleate salt Pattern B was placed in a tared mesh stainless steel basket under ambient conditions. A full experimental cycle consisted of […] (desorption, sorption repeat and desorption) at a constant temperature (25° C.) and 10% RH intervals over a 0-90% range (60 minutes for each humidity level).
Post cycle, the material was isolated at 0% RH and tested for crystallinity and then held at 90% RH for a minimum of 3 hours and re-tested for changes in crystallinity.

Structures are written as SMILES. pIC50: −log10 of the molar value. Structures can show the parent of a compound that is named as a salt.

With `COc1cc(C2(F)CCN(C)CC2)ccc1-c1cc(Nc2cnc(C#N)cn2)n[nH]1` [maleate salt, 5-[[5-[4-(4-fluoro-1-methyl-4-piperidyl)-2-methoxy-phenyl]-1H-pyrazol-3-yl]amino]pyrazine-2-carbonitrile maleate], in data set [1] (two-week storage at 25° C./60% RH and 40° C./75% RH, result in words), the “physical, polymorphic and chemical stability on storage” value was “remained as a free flowing solid with no evidence of deliquescence or agglomeration and no change in polymorphic form with good chemical stability”. Besides, the “solubility in FaSSGF (gastric fluid) compared with the free base” value in data set [2] (listed as maleate) is recorded as “improved solubility over the free base in FaSSGF”; in data set [2], “improved solubility in gastric fluid”.
Consider `COc1cc(C2(F)CCN(C)CC2)ccc1-c1cc(Nc2cnc(C#N)cn2)n[nH]1` [compound of formula (1), 5-[[5-[4-(4-fluoro-1-methyl-4-piperidyl)-2-methoxy-phenyl]-1H-pyrazol-3-yl]amino]pyrazine-2-carbonitrile], for which the “Aqueous solubility mg/mL 24 h” value came to 0.39 mg/mL. Also, the pIC50 (in general, −log10 of the IC50, conventionally taken in molar units) in data set [3] (Homo sapiens, compound alone, MIA PaCa-2 cells, 72h, Cell Titer Glo, read-out: Chk1 IC50) was 6.84. Besides, the “10 × LS” value in data set [3] (approximate concentration giving a 10-fold reduction in the IC50 of gemcitabine alone, MIA PaCa-2, 72h) is roughly 100 nM. Besides, the “2 × LS” value in data set [3] (approximate concentration giving a two-fold reduction in the IC50 of gemcitabine alone, MIA PaCa-2, 72h) is roughly 3 nM. Moreover, in data set [4] (listed as free base), the “GVS weight loss, initial desorption cycle” value was determined as 2 wt % and the “GVS water gain, subsequent sorption cycle” value is 8%. Moreover, in data set [2] (listed as free base), the “solubility FaSSGF (pH 1.37)” value is reported as 2.93 mg/mL, the “solubility FaSSIF (pH 6.71)” value was 0.04 mg/mL and the “solubility FeSSIF (pH 5.14)” value is 0.6 mg/mL.
For `COc1cc(C2(F)CCN(C)CC2)ccc1-c1cc(Nc2cnc(C#N)cn2)n[nH]1` [maleate pattern B, 5-[[5-[4-(4-fluoro-1-methyl-4-piperidyl)-2-methoxy-phenyl]-1H-pyrazol-3-yl]amino]pyrazine-2-carbonitrile], the “Aqueous solubility mg/mL 24 h” value is recorded as 1.4 mg/mL. In addition, in data set [1] (T = 0), the “HPLC purity (HPLC method 2)” value is 96.85. In data set [1] (T = 2 weeks, 2-8° C.), the “HPLC purity (HPLC method 2)” value was 96.85. Besides, in data set [1] (T = 2 weeks, 25° C./60% RH), the “HPLC purity (HPLC method 2)” value amounted to 96.99. For the same molecule, the “HPLC purity (HPLC method 2)” value in data set [1] (T = 2 weeks, 40° C./75% RH) was found to be 96.98. Moreover, in data set [1] (two weeks at 25° C./60% RH, 40° C./75% RH and 2-8° C., result in words), the stability on storage result is given as “stable”. In data set [5] (25° C., ambient start), the “DVS moisture associated before the first desorption” value is “ca. 2.8 wt %”. Further, in data set [5] (between 20 and 30% RH), the “DVS main increase in weight, first sorption” value is recorded as “ca. 2 wt %”. Also, the “crystalline form (XRPD) after DVS” value in data set [5] (isolated at 0% RH, then held at 90% RH, result in words) is “mixed phase at 0% RH and pattern B at 90% RH”. Also, the “crystalline form (XRPD) after GVS at extremes of humidity” value in data set [4] (0% RH and 90% RH, result in words) is recorded as 0% RH converts to pattern A, 90% RH no change. In data set [4], the “GVS weight loss, initial desorption cycle” value was 2.5 wt % and the “GVS water gain, subsequent sorption cycle” value was 4%. In addition, in data set [2], the “solubility FaSSGF (pH 1.37)” value is 3.97 mg/mL, the “solubility FaSSIF (pH 6.71)” value is on record as 0.07 mg/mL and the “solubility FeSSIF (pH 5.14)” value was 0.57 mg/mL.

Values taken from patent US20240360101A1, “PHARMACEUTICAL SALTS OF A CHK-1 INHIBITOR” (SENTINEL ONCOLOGY LIMITED, priority 2021, published 2024).
